# Results from US20070026051A1, “Use of tripolidine in providing refreshedness on waking” (priority 2003, published 2007).
# What was measured:
# [1] = tested on: patients with temporary sleep disturbance; assay: Clinical trial: Karolinska 9-point sleepiness scale; assay type: in vivo, human
# Source text: (§1) The study herein utilised the following determination methods:— • (a) Karolinska scale as defined in: Int. J. Neuroscience 52 29-37 (1990); and—validation: Sleep 17 (3) 236-41 (1994) • (b) Loughborough Sleep log as defined in: Sleep 17 (2) 146-159 (1994); and • Sleep 18 (2) 127-134 (1995) • (c) Actimetry—AW4 actimeters (Cambridge Neurotechnology) were worn continuously throughout the study. A button was pressed at night when the subject desired to go to sleep and again in the morning upon waking. The results of the actimeter study were analysed in the manner defined by Horne et al (Sleep, 17(2); 146-159). SDI % was calculated as follows:— SDI=Number of 30 second epochs with movement×100 • Number of 30 second epochs from total time spent in bed This is the measure of: • 1. The length of time it took to fall asleep • 2. Any awakenings throughout the sleep period • Expressed as a % of total time spent in bed. Study Objectives • To evaluate the effects of two doses of triprolidine compared with placebo. Study Design
# A multiple-dose, placebo-controlled, parallel-group, double-blind, randomised study investigating the effects of 2.5 mg and 5 mg triprolidine in patients with temporary sleep disturbance.
# Male and Female candidates aged 18 years and above were recruited to one of five research centres by means of local advertising. Candidates were screened by means of a telephone questionnaire and selected candidates invited for interview at the research centre. Key inclusion criteria used to select candidates for the study were: • A record of poor sleep at least 2 nights per week • A record of poor sleep for at least 1 week but not more than 3 months • Sleep disturbance not caused by underlying disease • No excess use of alcohol or drugs • Sleep disturbance affected daytime functioning
# The candidates came to the research centre on Thursday or Friday and were fitted with a wrist actimeter (AW4 from Cambridge Technology) to establish a baseline measure for SDI and were provided with diary cards to record subjective assessments for the Loughborough Sleep Log and the Karolinska Sleepiness Scale. They returned to the investigational site on the Monday and were issued with the study compositions (2.5 mg triprolidine, 5 mg triprolidine or placebo). […]
# (§2) Generally the treatment groups were well balanced in terms of the demographic data. Unless otherwise mentioned all group data was analysed using ANOVA. In two cases, namely, how the patient felt 15 minutes after awakening in the Loughborough Sleep Log and the Karolinska Sleepiness Scale at 20 minutes, the two variables were analysed using ANCOVA by including the weekend and the mean of Friday/Saturday/Sunday night as a covariate. […]
# [2] = tested on: patients with temporary sleep disturbance; assay: Clinical trial: Loughborough sleep log (subjective); assay type: in vivo, human; parameters: dose or concentration left out as unconfirmed; details: mean of the 3 nights, p<0.05
# Source text: as §1, with “Design […]” for “Design”
# Candidates were required to complete a questionnaire 15 minutes after awaking on the feeling of refreshedness assessed on a 5-point scale, the Loughborough sleep log.
# Generally the treatment groups were well balanced in terms of the demographic data. Unless otherwise mentioned all group data was analysed using ANOVA. […]
# volunteers = details: single doses 10 mg or 20 mg sustained release at bedtime; cited from earlier work
# [3] = tested on: patients with temporary sleep disturbance; assay: Clinical trial: wrist actimetry (SDI, time to sleep onset); assay type: in vivo, human; parameters: SDI compared to placebo: dose or concentration left out as unconfirmed
# Source text: The efficacy of triprolidine in enabling a patient to feel refreshed or alert upon waking after taking triprolidine prior to sleeptime was investigated using patients with a history of sleep disorders and utilising triprolidine prepared in accordance with example 1.
# as §1, with “Design […]” for “Design”
# Male and Female candidates aged 18 years and above were recruited to one of five research centres by means of local advertising. […]
# In the trial, patients were tested during a seven day period and the results have been analysed for a mean of three days in the middle of this period. […]
# as §2
# [4] = 2.5 mg triprolidine, mean of the 3 nights
# [5] = both treatments (2.5 mg and 5 mg), every treatment night
smiles,measurement,setting,value
Cc1ccc(/C(=C\CN2CCCC2)c2ccccn2)cc1 [triprolidine],"percentage of people feeling alert, very alert or extremely alert on waking vs placebo (Karolinska log)",[1]; [4],greater percentage
same,"percentage of people feeling sleepy, some effort, or very sleepy, great effort to keep awake on waking vs placebo (Karolinska log)",[1]; [4],lower percentage
same,residual hangover effects/morning grogginess,[1]; [4],no evidence of residual hangover effects/morning grogginess
same,daytime sleepiness,[1]; either dose of triprolidine,lack of daytime sleepiness
same,feeling of refreshedness 15 minutes after waking vs placebo (Loughborough sleep log),[2],more refreshed
same,sleep onset latency (time required to fall asleep) compared with placebo,volunteers,did not significantly alter
same,total sleep time compared with placebo,volunteers,no effect
same,wakefulness during sleep compared with placebo,volunteers,no effect
same,SDI as compared with placebo,[3]; [5],reduced
same,sleep latency onset as compared with placebo,[3]; [5],reduced
same,SDI compared to placebo,"[3]; triprolidine, mean of the 3 nights, p<0.01",significantly reduced
